From patent US8124624B2, “Substituted sulfonamide compounds” (Gruenenthal GmbH, priority 2008, dated 2012)

Molecular target: T1, B1R of the rat (Rattus norvegicus, UniProt P97583)
T1 construct: expressed in transfected cells; host or cells: CHO K1 cells (rB1R cells)
T1 sequence (P97583 1-337): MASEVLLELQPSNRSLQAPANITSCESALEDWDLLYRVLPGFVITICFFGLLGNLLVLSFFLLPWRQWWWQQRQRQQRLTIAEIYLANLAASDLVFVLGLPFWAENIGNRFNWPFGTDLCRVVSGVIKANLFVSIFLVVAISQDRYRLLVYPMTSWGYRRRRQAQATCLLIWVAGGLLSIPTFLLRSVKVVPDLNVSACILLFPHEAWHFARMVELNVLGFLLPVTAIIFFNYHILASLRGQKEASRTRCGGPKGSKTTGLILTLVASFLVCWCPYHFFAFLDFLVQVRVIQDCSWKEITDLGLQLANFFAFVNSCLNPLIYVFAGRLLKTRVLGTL
Assay: FLIPR Ca2+ influx assay, B1R antagonism, rat (rB1R CHO K1 cells)
Format: cell-based
Conditions: test substance 10 μM; CHO K1 cells stably transfected with rat B1R; agonist Des-Arg9-bradykinin at EC80; % inhibition compared with maximum achievable inhibition
Method: The agonistic or antagonistic action of substances can be quantified on the bradykinin receptor 1 (B1R) of the species human and rat using ectopically expressing cell lines (CHO K1 cells) and with the aid of a Ca^2+-sensitive dye (Fluo-4) using a fluorescent imaging plate reader (FLIPR). The indication in % activation is based on the Ca^2+ signal after addition of Lys-Des-Arg^9-bradykinin (0.5 nM) or Des-Arg^9-bradykinin (100 nM). Antagonists lead to suppression of the Ca^2+ influx after the addition of the agonist. % Inhibition compared with the maximum achievable inhibition is indicated.
The agonistic or antagonistic action of substances can be determined on the bradykinin receptor 1 (B1R) of the species human and rat using the following assay. According to this assay, the Ca^2+ influx through the channel is quantified with the aid of a Ca^2+-sensitive dye (Fluo-4 type, Molecular Probes Europe BV, Leiden, Netherlands) using a Fluorescent Imaging Plate Reader (FLIPR, Molecular Devices, Sunnyvale, USA).
Chinese hamster ovary cells (CHO K1 cells) which have been stably transfected with the human B1R gene (hB1R cells) or with the B1R gene of the rat (rB1R cells) are used. For functional studies, the cells are plated out on black 96-well plates having a clear base (BD Biosciences, Heidelberg, Germany or Greiner, Frickenhausen, Germany) in a density of 20,000-35,000 cells/well. The cells are incubated overnight at 37° C. and with 5% CO2 in culture medium (hB1R cells: Nutrient Mixture Ham's F12, Gibco Invitrogen GmbH, Karlsruhe, Germany or DMEM, Sigma-Aldrich, Taufkirchen, Germany; rB1R cells: D-MEM/F12, Gibco Invitrogen GmbH, Karlsruhe, Germany), with 10 vol. % FBS (fetal bovine serum, Gibco Invitrogen GmbH, Karlsruhe, Germany or PAN Biotech GmbH, Aidenbach, Germany).
On the following day, the cells are loaded for 60 minutes at 37° C. with 2.13 μM Fluo-4 (Molecular Probes Europe BV, Leiden, Netherlands) in HBSS buffer (Hank's buffered saline solution, Gibco Invitrogen GmbH, Karlsruhe, Germany) […] (Sigma-Aldrich, Taufkirchen, Germany) and 10 mM HEPES (Sigma-Aldrich, Taufkirchen, Germany). The plates are then washed twice with HBSS buffer, and HBSS buffer additionally containing 0.1% BSA (bovine serum albumin; Sigma-Aldrich, Taufkirchen, Germany), 5.6 mM glucose and 0.05% gelatin (Merck KGaA, Darmstadt, Germany) is added to the plates. After incubation for a further 20 minutes at room temperature, the plates are inserted into the FLIPR for Ca^2+ measurement.
Alternatively, washing is carried out with buffer A (15 mM HEPES, 80 mM NaCl, 5 mM KCl, 1.2 mM CaCl2, 0.7 mM MgSO4, 2 g/l glucose, 2.5 mM probenecid) followed by loading with buffer A with added 2.5 μM Fluo-4 and 0.025% Pluronic F127 (Sigma-Aldrich, Taufkirchen, Germany). The cells are then washed twice with buffer A and incubated for 30 minutes at room temperature with buffer A additionally containing 0.05% BSA and 0.05% gelatin and are then inserted into the FLIPR for Ca^2+ measurement.
The Ca^2+-dependent fluorescence is measured before and after the addition of substances (λex=488 nm, λem=540 nm). Quantification is carried out by measuring the highest fluorescence intensity (FC, fluorescence counts) over time.
The FLIPR protocol consists of two substance additions. Test substances (10 μM) are first pipetted onto the cells and the Ca^2+ influx is compared with the control (hB1R: Lys-Des-Arg^9-bradykinin >=50 nM; rB1R: Des-Arg^9-bradykinin 10 μM). This gives the activation in %, based on the Ca^2+ signal after addition of Lys-Des-Arg^9-bradykinin (>=50 nM) or Des-Arg^9-bradykinin (10 μM). After 10-20 minutes' incubation, Lys-Des-Arg^9-bradykinin (hB1R) or Des-Arg^9-bradykinin (rB1R) is applied in the concentration of the EC80, and the influx of Ca^2+ is likewise determined. Antagonists lead to suppression of the Ca^2+ influx. The % inhibition compared with the maximum achievable inhibition is calculated. […]

| B1R antagonism, rat [10 μM] % inhibition | Compound |
| --- | --- |
| 100% | COc1cc(C)c(S(=O)(=O)N(CCOCC(=O)N2CCC(CCCN3CCCC3)(c3ccncc3)CC2)Cc2ccccc2)c(C)c1 [Example 40, N-Benzyl-4-Methoxy-2,6-dimethyl-N-[2-[2-oxo-2-[4-pyridin-4-yl-4-(3-pyrrolidin-1-yl-propyl)-piperidin-1-yl]-ethoxy]-ethyl]-benzenesulfonic acid amide] |
| 100% | O=C(COCC1CCCCN1S(=O)(=O)c1ccccc1C(F)(F)F)N1CCC(CCCN2CCCC2)(c2ccncc2)CC1 (centres unmarked) [Example 44, 1-[4-Pyridin-4-yl-4-(3-pyrrolidin-1-yl-propyl)-piperidin-1-yl]-2-[[1-[[2-(trifluoromethyl)-phenyl]sulfonyl]-piperidin-2-yl]-methoxy]-ethanone] |
| 101% | COc1cc(C)c(S(=O)(=O)N2CCCCC2CCOCC(=O)N2CCC(CCCN3CCCC3)(c3cccnc3)CC2)c(C)c1 (centres unmarked) [Example 46, 2-[2-[1-[(4-Methoxy-2,6-dimethyl-phenyl)sulfonyl]-piperidin-2-yl]-ethoxy]-1-[4-pyridin-3-yl-4-(3-pyrrolidin-1-yl-propyl)-piperidin-1-yl]-ethanone] |
| 83% | O=C(COCC1CCc2ccccc2N1S(=O)(=O)c1ccc2ccccc2c1)N1CCC(CCCN2CCCC2)(c2cccnc2)CC1 (centres unmarked) [Example 52, 2-[[1-(Naphthalen-2-ylsulfonyl)-1,2,3,4-tetrahydro-quinolin-2-yl]-methoxy]-1-[4-pyridin-3-yl-4-(3-pyrrolidin-1-yl-propyl)-piperidin-1-yl]-ethanone] |

Same assay, conditions: test substance 10 μM; CHO K1 cells stably transfected with rat B1R; agonist Des-Arg9-bradykinin at EC80; % inhibition compared with maximum achievable inhibition; read-out: B1R antagonism, rat [10 μM] % inhibition

| Compound | inhibition at 10 µM |
| --- | --- |
| COc1cc(C)c(S(=O)(=O)N2CCCCC2COCC(=O)N2CCC(CCCN3CCCC3)(c3ccncc3)CC2)c(C)c1 (centres unmarked) [Example 28, 2-[[1-[(4-Methoxy-2,6-dimethyl-phenyl)sulfonyl]-piperidin-2-yl]-methoxy]-1-[4-pyridin-4-yl-4-(3-pyrrolidin-1-yl-propyl)-piperidin-1-yl]-ethanone] | 97% |
| COc1cc(C)c(S(=O)(=O)N(C)CCOCC(=O)N2CCC(CCCN3CCCC3)(c3ccncc3)CC2)c(C)c1 [Example 30, 4-Methoxy-N,2,6-trimethyl-N-[2-[2-oxo-2-[4-pyridin-4-yl-4-(3-pyrrolidin-1-yl-propyl)-piperidin-1-yl]-ethoxy]-ethyl]-benzenesulfonic acid amide] | 100% |
| COc1cc(C)c(S(=O)(=O)N2CCCCC2CCOCC(=O)N2CCC(CCCN3CCCC3)(c3cccnc3)CC2)c(C)c1 (centres unmarked) [Example 45, 2-[2-[1-[(4-Methoxy-2,6-dimethyl-phenyl)sulfonyl]-piperidin-2-yl]-ethoxy]-1-[4-pyridin-3-yl-4-(3-pyrrolidin-1-yl-propyl)-piperidin-1-yl]-ethanone] | 100% |
| CN(CCCC(=O)N1CCC(CCCN2CCCC2)(c2cccnc2)CC1)S(=O)(=O)c1cccc(C(F)(F)F)c1 [Example 47, N-Methyl-N-[4-Oxo-4-[4-pyridin-3-yl-4-(3-pyrrolidin-1-yl-propyl)-piperidin-1-yl]-butyl]-3-(trifluoromethyl)-benzenesulfonic acid amide] | 53% |
| O=C(COCC1CCc2ccccc2N1S(=O)(=O)c1ccc2ccccc2c1)N1CCC(CCCN2CCCC2)(c2cccnc2)CC1 (centres unmarked) [Example 51, 2-[[1-(Naphthalen-2-ylsulfonyl)-1,2,3,4-tetrahydro-quinolin-2-yl]-methoxy]-1-[4-pyridin-3-yl-4-(3-pyrrolidin-1-yl-propyl)-piperidin-1-yl]-ethanone] | 80% |
| COc1cc(C)c(S(=O)(=O)N2c3ccccc3CCC2COCC(=O)N2CCC(CCCN3CCCC3)(c3ccncc3)CC2)c(C)c1 (centres unmarked) [Example 55, 2-[[1-[(4-Methoxy-2,6-dimethyl-phenyl)sulfonyl]-1,2,3,4-tetrahydro-quinolin-2-yl]-methoxy]-1-[4-pyridin-4-yl-4-(3-pyrrolidin-1-yl-propyl)-piperidin-1-yl]-ethanone] | 98% |
| O=C(CCCC1CCCCN1S(=O)(=O)c1ccccc1C(F)(F)F)N1CCC(CCCN2CCCC2)(c2cccnc2)CC1 (centres unmarked) [Example 57, 1-[4-Pyridin-3-yl-4-(3-pyrrolidin-1-yl-propyl)-piperidin-1-yl]-4-[1-[[2-(trifluoromethyl)-phenyl]sulfonyl]-piperidin-2-yl]-butan-1-one] | 70% |

Further lines, results first:

| inhibition at 10 µM | Compound |
| --- | --- |
| 100% | COc1cc(C)c(S(=O)(=O)N(C)CCOCC(=O)N2CCC(CCCN3CCCC3)(c3ccncc3)CC2)c(C)c1C [Example 32, 4-Methoxy-N,2,3,6-tetramethyl-N-[2-[2-oxo-2-[4-pyridin-4-yl-4-(3-pyrrolidin-1-yl-propyl)-piperidin-1-yl]-ethoxy]-ethyl]-benzenesulfonic acid amide] |
| 99% | COc1cc(C)c(S(=O)(=O)N(CCOCC(=O)N2CCC(CCCN3CCCC3)(c3ccncc3)CC2)Cc2ccccc2)c(C)c1 [Example 39, N-Benzyl-4-Methoxy-2,6-dimethyl-N-[2-[2-oxo-2-[4-pyridin-4-yl-4-(3-pyrrolidin-1-yl-propyl)-piperidin-1-yl]-ethoxy]-ethyl]-benzenesulfonic acid amide] |
| 101% | O=C(COCC1CCCCN1S(=O)(=O)c1ccccc1C(F)(F)F)N1CCC(CCCN2CCCC2)(c2ccncc2)CC1 (centres unmarked) [Example 43, 1-[4-Pyridin-4-yl-4-(3-pyrrolidin-1-yl-propyl)-piperidin-1-yl]-2-[[1-[[2-(trifluoromethyl)-phenyl]sulfonyl]-piperidin-2-yl]-methoxy]-ethanone] |
| 100% | COc1cc(C)c(S(=O)(=O)N(CCOCC(=O)N2CCC(CCCN3CCCC3)(c3ccncc3)CC2)c2ccccc2)c(C)c1 [Example 50, 4-Methoxy-2,6-Dimethyl-N-[2-[2-oxo-2-[4-pyridin-4-yl-4-(3-pyrrolidin-1-yl-propyl)-piperidin-1-yl]-ethoxy]-ethyl]-N-phenyl-benzenesulfonic acid amide] |
| 97% | Cc1cccc(Cl)c1S(=O)(=O)N1CCCCC1CCCC(=O)N1CCC(CCCN2CCCC2)(c2ccncc2)CC1 (centres unmarked) [Example 56, 4-[1-[(2-Chloro-6-methyl-phenyl)sulfonyl]-piperidin-2-yl]-1-[4-pyridin-4-yl-4-(3-pyrrolidin-1-yl-propyl)-piperidin-1-yl]-butan-1-one] |
| 99% | O=C(CCCC1CCCCN1S(=O)(=O)c1ccccc1C(F)(F)F)N1CCC(CCCN2CCCC2)(c2ccncc2)CC1 (centres unmarked) [Example 58, 1-[4-Pyridin-4-yl-4-(3-pyrrolidin-1-yl-propyl)-piperidin-1-yl]-4-[1-[[2-(trifluoromethyl)-phenyl]sulfonyl]-piperidin-2-yl]-butan-1-one] |
